Values quoted from earlier work, collected in patent US6465436B2, “Method for treating alcohol intoxication and alcohol abuse” (McLean Hospital, priority 2000, dated 2002).

Key:
[1] = molecular target: T1, human ALDH-1 (Homo sapiens, UniProt P05091)
T1 sequence (P05091 18-517): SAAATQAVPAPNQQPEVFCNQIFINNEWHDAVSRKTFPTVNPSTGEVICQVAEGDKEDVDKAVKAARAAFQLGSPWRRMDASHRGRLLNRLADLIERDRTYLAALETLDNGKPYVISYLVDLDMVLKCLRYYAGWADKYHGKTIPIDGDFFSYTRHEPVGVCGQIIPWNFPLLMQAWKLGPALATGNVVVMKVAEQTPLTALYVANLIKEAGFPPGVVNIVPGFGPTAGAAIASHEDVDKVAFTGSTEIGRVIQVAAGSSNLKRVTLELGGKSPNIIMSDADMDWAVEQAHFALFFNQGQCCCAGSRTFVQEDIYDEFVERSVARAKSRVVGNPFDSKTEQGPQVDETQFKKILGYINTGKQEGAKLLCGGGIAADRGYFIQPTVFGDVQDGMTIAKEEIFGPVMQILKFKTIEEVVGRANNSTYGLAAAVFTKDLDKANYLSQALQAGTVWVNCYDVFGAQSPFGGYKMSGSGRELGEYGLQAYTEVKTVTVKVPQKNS

[2] = test system: Syrian Golden hamsters
[3] = for alcohol consumption suppressing activity of herbal medicines derived from Pueraria lobata (fractionation studies): U.S. Pat. No. 5,783,189
[4] = in vivo
[5] = test system: ALDH

| Structure (SMILES) | human ALDH-1 inhibition [1] | alcohol intake [2] | alcohol consumption suppressing activity of herbal medicines derived from Pueraria lobata (fractionation studies) [3] | blood alcohol levels [4] | sleep time induced by alcohol [4] | ALDH inhibition [5] | activity in suppressing alcohol intake relative to daidzin ([3]; in vivo) |
| --- | --- | --- | --- | --- | --- | --- | --- |
| O=c1c(-c2ccc(O)cc2)coc2cc(O)ccc12 [daidzein] | potent human ALDH-1 inhibitors | suppressed alcohol intake | primarily responsible for the alcohol consumption suppressing activity | decreases blood alcohol levels | shortens sleep time |  |  |
| O=c1c(-c2ccc(O)cc2)coc2cc(O[C@@H]3O[C@H](CO)[C@@H](O)[C@H](O)[C@H]3O)ccc12 [daidzin] | potent human ALDH-1 inhibitors | suppressed alcohol intake | primarily responsible for the alcohol consumption suppressing activity |  |  |  |  |
| O=c1c(-c2ccc(O)cc2)coc2c([C@@H]3O[C@H](CO)[C@@H](O)[C@H](O)[C@H]3O)c(O)ccc12 [puerarin] |  |  | primarily responsible for the alcohol consumption suppressing activity |  |  | not an ALDH inhibitor | slightly less active than daidzin |
| COc1cc(-c2coc3c([C@@H]4O[C@H](CO)[C@@H](O)[C@H](O)[C@H]4O)c(O)ccc3c2=O)ccc1O [3′-methoxypuerarin] |  |  | primarily responsible for the alcohol consumption suppressing activity |  |  |  |  |
| O=c1c(-c2ccc(O)cc2)coc2c([C@@H]3O[C@H](CO[C@@H]4OC[C@](O)(CO)[C@H]4O)[C@@H](O)[C@H](O)[C@H]3O)c(O)ccc12 [mirificin] |  |  | primarily responsible for the alcohol consumption suppressing activity |  |  |  |  |
